# Columns and labels:
# [1] = tested on: leaves of tobacco plants (35S promoter-deac1 transformants, nontransgenic controls); assay: Drop experiment on leaves of pPCVKDEAC1 tobacco plants and nontransgenic control plants; format: in vivo, Nicotiana tabacum; set-up: key to Drop experiment, leaf symptoms: +++: severe necrosis; ++: marked damage; +: slight lightening; −: no symptoms
# From the text: The deac1 structural gene was recloned as a 1.4 kb BamHI/SalI PCT fragment into the binary vector pPCV801 (Koncz and Schell, 1986, Mol. Gen. Genet. 204: 383-396) under control of the 35S promoter. The resulting plasmid pPCVKDEAC1 (FIG. 2) with the expression vector 35S promoter-deac1-structural gene-35S terminator was transformed in Agrobacterium tumefaciens (strain ATHV) using standard methods. Pieces of tobacco leaf (Nicotiana tabacum) were transformed with the recombinant Agrobacteria according to the method of Horsch et al., 1985, Science 227: 1229-1231 and selected on kanamycin medium, 18 independent tobacco transformants were regenerated and tested for expression of the deacetylase in the leaves. In the case of activity of the protein in the transgenic plants, a sensitivity of the leaves to N-acetyl-PPT was to be expected, because the substance in the plant is then converted into the herbicidal active compound phosphinothricin on account of the enzymatic activity of the deacetylase.
# In a drop experiment, the leaves of the transgenic plants and of a number of nontransgenic control plants were treated with 5 μl each of the following concentrations of N-acetyl-D,L-PPT: 4 mg/ml(=15 mM), 1 mg/ml(=3.75 mM), 0.4 mg/ml(=1.5 mM), 0.1 mg/ml(=0.38 mM). The treatment sites were examined for lightening or necrosis formation after 1-2 weeks. Simultaneously, the N-acetyl-PPT-specific deacetylase activity of the transformants, and also of the control plants, was measured in crude extracts. To do this, 100 mg each of leaf material were homogenized in 200 μl of PBS buffer, the cell debris was centrifuged off and the protein-containing supernatants were dialyzed overnight at 4° C. against the same buffer. 10 μl each of these samples were incubated with 0.1 mM [^14C]-N-acetyl-L-PPT overnight at 37° C. The batches were then analyzed in the HPLC, as described above, for formation of [^14C]-L-PPT.
# [2] = tested on: flower buds of tobacco plants (tap1 promoter-deac1 transformants, NT Sam NN controls); assay: Flower bud treatment, induced male sterility in pPCVTDEAC1 tobacco plants; format: in vivo, Nicotiana tabacum
# From the text: Using standard methods, the tapetum-specific promoter of the tap1 gene from snapdragon (Antirrhinum majus) was fused in the vector pUC18 as a 2.2 kb EcoRI/BamHI fragment with the deac1 structural gene (1.4 kb BamHI/SalI-PCR fragment) and the 35S terminator. The expression cassette tap1 promoter-deac structural gene-35S terminator thus resulting was cloned into the binary vector pPCV801 as a 3.8 kb EcoRI fragment instead of the 35S promoter/terminator region (plasmid pPCVTDEAC1, FIG. 3). The transformation of tobacco was carried out as described in Example 4.
# In the case of tapetum-specific expression of the deacetylase, it should be possible by treatment of the flower buds with N-acetyl-PPT to induce male-sterile flowers. The conversion of the PPT derivative into the herbicidal active compound phosphinothricin leads to selective damage to the tapetum tissue, by means of which the development of functional pollen is prevented.
# In each case only one side of the inflorescences (the total area of the developing flower buds) was treated with N-acetyl-PPT, the other side of the influorescences remained untreated in order to ensure that the phenomena to be observed are not to be attributed to deformities of the respective plants. The treatment was carried out at a time at which the individual buds were not larger than 5 mm (active phase for tapetum promoter). The tobacco transformants and also a number of NT Sam NN control plants were treated 3× with 0.2% N-acetyl-D,L-PPT(=7.5 mM)/0.1% Genapol (wetting agent) within one week. After the blooming of the buds (about 9-11 days after conclusion of the treatment), the plants were investigated for the occurrence of male-sterile flowers.
# [3] = tested on: N-acetyl-PPT deacetylase (Deac1 protein); assay: Radioactive test of purified N-acetyl-PPT deacetylase (Deac1) with [14C]-N-acetyl-L-PPT, HPLC; format: biochemical, Stenotrophomonas sp.; conditions: for Km: substrate [14C]-N-acetyl-L-PPT 0.01-1 mM, pH=8.0, 1 mM CoCl2, 3-fold determinations; for Spec. activity: substrate [14C]-N-acetyl-L-PPT
# [4] = tested on: N-acetyl-PPT deacetylase (Deac1 protein); assay: Nonradioactive test, substrate specificity of purified deacetylase (amino acid analyzer); format: biochemical, Stenotrophomonas sp.; conditions: 25 mM substrate; for Rel. activity: 60 min, 28 °C, 5 μg enzyme, hippuric acid set equal to 100%
# Description: (2) Nonradioactive test: To investigate the substrate specificity, 5 μg each of purified enzyme were incubated for 60 min. at 28° C. in 20 μl batches in PBS buffer with, in each case, 25 mM of a certain N-acetyl- or N-acylamino acid. The samples were then measured in an amino acid analyzer (Biotronic LC 5001) for formation of the free amino acids. The specific activities were determined in [nmol of amino acid/min/mg of protein]. For the N-acetyl-PPT deacetylase, a pH optimum of pH=8 (see Tab. 1) and a temperature optimum of 37° C. (see Tab. 2) were determined. […] By addition of 1 mM CoCl2, the enzyme activity could be increased by about 20%.
# deac2 gene product = assay: Conversion of N-acetylated amino acids by permeabilized E. coli XLI blue cells with pGK81; format: cell-based, Comamonas acidovorans; conditions: 25 mM, 3 hours at 30 °C
# Description: To investigate the substrate specificity of the deac2 gene product from Comamonas acidovorans, cells of E. coli strain XLI blue permeabilized by toluene/ethanol treatment were used with and without the vector pGK81. The induction of the deac2 gene repressed by the Lac^i repressor present in this strain could be achieved by IPTG treatment. The permeabilized cells were incubated for 3 hours at 30° C. with various N-acetylated amino acids (final concentration 25 mM) and the supernatants were investigated with the aid of an amino acid analyzer. It turned out here that more than 20% of the N-acetylornithine made available was converted. For N-acetyl-phosphinothricin too, an increasing deacetylation to phosphinothricin, analogous to the concentration of N-acetylphosphinothricin employed, could be found (Table 7).
# The concentrations of the N-acetylated amino acids employed and the amino acids formed by deacetylation are indicated.
molecule,measurement,setting,value
"CC(=O)NC(CCP(C)(=O)O)C(=O)O (racemic) [N-acetyl-D,L-PPT, N-acetylphosphinothricin]","Drop experiment, leaf symptoms","[1]; Control plant, 0.1 mg/ml",−
same,"Drop experiment, leaf symptoms","[1]; Control plant, 0.4 mg/ml",−
same,"Drop experiment, leaf symptoms","[1]; Control plant, 1 mg/ml",−
same,"Drop experiment, leaf symptoms","[1]; Control plant, 4 mg/ml, 5 μl, after 1-2 weeks",−
same,concentration to which leaves still react sensitively,"[1]; constitutive expression of the deac gene, greenhouse plants (=0.2 mg/ml of L-enantiomer)",0.4 mg/mL
same,"Drop experiment, leaf symptoms","[1]; plant pPCVK9, 0.1 mg/ml",−
same,"Drop experiment, leaf symptoms","[1]; plant pPCVK9, 0.4 mg/ml",−
same,"Drop experiment, leaf symptoms","[1]; plant pPCVK9, 1 mg/ml",+
same,"Drop experiment, leaf symptoms","[1]; plant pPCVK9, 4 mg/ml",+++
same,"Drop experiment, leaf symptoms","[1]; plant pPCVK14, 0.1 mg/ml",−
same,"Drop experiment, leaf symptoms","[1]; plant pPCVK14, 0.4 mg/ml",−
same,"Drop experiment, leaf symptoms","[1]; plant pPCVK14, 1 mg/ml",+
same,"Drop experiment, leaf symptoms","[1]; plant pPCVK14, 4 mg/ml",+
same,"Drop experiment, leaf symptoms","[1]; plant pPCVK15, 0.1 mg/ml",−
same,"Drop experiment, leaf symptoms","[1]; plant pPCVK15, 0.4 mg/ml",+
same,"Drop experiment, leaf symptoms","[1]; plant pPCVK15, 1 mg/ml",+
same,"Drop experiment, leaf symptoms","[1]; plant pPCVK15, 4 mg/ml",++
same,"Drop experiment, leaf symptoms","[1]; plant pPCVK16, 0.1 mg/ml",−
same,"Drop experiment, leaf symptoms","[1]; plant pPCVK16, 0.4 mg/ml",−
same,"Drop experiment, leaf symptoms","[1]; plant pPCVK16, 1 mg/ml",+
same,"Drop experiment, leaf symptoms","[1]; plant pPCVK16, 4 mg/ml",+
same,"Drop experiment, leaf symptoms","[1]; plant pPCVK17, 0.1 mg/ml",−
same,"Drop experiment, leaf symptoms","[1]; plant pPCVK17, 0.4 mg/ml",−
same,"Drop experiment, leaf symptoms","[1]; plant pPCVK17, 1 mg/ml",+
same,"Drop experiment, leaf symptoms","[1]; plant pPCVK17, 4 mg/ml",+
same,"Number of sterile or pollen-reduced flowers, treated","[2]; Control plant, 3x 0.2% N-acetyl-D,L-PPT/0.1% Genapol within one week",0
same,"Number of sterile or pollen-reduced flowers, treated",[2]; plant pPCT16,10
same,"Number of sterile or pollen-reduced flowers, treated",[2]; plant pPCVT14,18
same,"Number of sterile or pollen-reduced flowers, treated",[2]; plant pPCVT15,0
same,induction of male-sterile flowers (in words),"[2]; tapetum-specific expression, buds treated with 2 mg/ml (=1 mg/ml of L-enantiomer), greenhouse plants",induction of male-sterile flowers was achieved
[Cl-].[Cl-].[Co+2] [CoCl2],increase of enzyme activity,[3],about 20%
"O=C(O)CNC(=O)c1ccccc1 [Hippuric acid, N-benzoylglycine]",conversion by the deacetylase (in words),[4],highest conversions
same,Rel. activity,[4],100%
"CC(=O)N[C@@H](CCC(=O)O)C(=O)O [N-Ac-glutamic acid, N-acetyl-L-glutamate]",conversion by the deacetylase (in words),[4],highest conversions
same,Rel. activity,[4],100%
CC(=O)N[C@@H](CCC(N)=O)C(=O)O [N-Ac-glutamine],Rel. activity,[4],30%
CC(=O)NCC(=O)O [N-Ac-glycine],Rel. activity,[4],59%
CC(=O)N[C@@H](Cc1cnc[nH]1)C(=O)O [N-Ac-histidine],Rel. activity,[4],43%
CC(=O)N[C@@H](CC(C)C)C(=O)O [N-Ac-leucine],Rel. activity,[4],33%
CSCCC(NC(C)=O)C(=O)O (stereo not shown) [N-Ac-methionine],Rel. activity,[4],0%
CC(=O)N[C@@H](CCCN)C(=O)O [N-Ac-ornithine],Rel. activity,[4],37%
CC(=O)NC(Cc1ccccc1)C(=O)O (stereo not shown) [N-Ac-phenylalanine],Rel. activity,[4],24%
CC(=O)N1CCCC1C(=O)O (stereo not shown) [N-Ac-proline],Rel. activity,[4],0%
CC(=O)NC(CO)C(=O)O (stereo not shown) [N-Ac-serine],Rel. activity,[4],4%
CC(=O)NC(Cc1c[nH]c2ccccc12)C(=O)O (stereo not shown) [N-Ac-tryptophan],Rel. activity,[4],0.4%
CC(=O)N[C@@H](Cc1ccc(O)cc1)C(=O)O [N-Ac-tyrosine],Rel. activity,[4],11%
CC(=O)N[C@H](C(=O)O)C(C)C [N-Ac-valine],Rel. activity,[4],2%
"CC(=O)N[C@@H](CCP(C)(=O)O)C(=O)O [N-acetyl-L-PPT, N-acetyl-L-phosphinothricin]",Km,[3],670 µM
same,affinity below that for hippuric acid and N-acetyl-L-glutamate,[4],approximately 50%
same,Rel. activity,[4],43%
"CC(=O)N[C@@H](CCCN)C(=O)O [N-acetyl-ornithine, N-acetylornithine]",share of substrate made available that was converted,deac2 gene product,more than 20%
"N-acetyl-PPT deacetylase: deacetylase from Stenotrophomonas sp., 454 amino acids (SEQ ID NO:2), purified from E. coli as GST fusion cleavage product (protein, Stenotrophomonas sp) MIRKTVLLTALSCALASATATAAEGQRPEVEAAAARLQRQVVEWRRDFHQHPELSNREVRTAAKVAERLRAMGLQPQTGVAVHGVVAIIKGALPGPKIALRADMDALPVTEQTGLPFASTATAEYRGEKVGVMHACGHDAHTATLLGVADALVAMRDTLPGEVMLIFQPAEEGAPPPEQGGAELMLKEGLFKEFKPEAVFGLHVFSSVQAGQIAVRGGPLMAASDRFAITVNGRQTHGSAPWNGIDPIVAASDLIGTAQTIVSRRANLSKQPAVLTFGAIKGGIRYNIIPDSVEMVGTIRTFDPDMRKQIFADLRNVAEHTAAAHGATATTDIYEKDGNPATVNDPALTARMLPSLQAVVGKDNVYEPPLQMGSEDFSLYAQQVPAMFFFVGSTGAGIDPATAPSNHSPKFLLDEKALDVGLRALLQVSLDYLHGGKAG",Spec. activity,[3]; 28 °C,9.6 nmol/min/mg of protein
same,Spec. activity,[3]; 37 °C,16.8 nmol/min/mg of protein
same,Spec. activity,[3]; 50 °C,14.9 nmol/min/mg of protein
same,Spec. activity,[3]; 60 °C,4.3 nmol/min/mg of protein
same,Spec. activity,[3]; pH 6,2.4 mol/min/mg of protein
same,Spec. activity,[3]; pH 8,12.0 mol/min/mg of protein
same,Km,[3],670 µM

# From patent US6555733B2, “Genes coding for amino acid deacetylases with specificity for N-acetyl-L-phosphinothricin, their isolation and use” (priority 1996, dated 2003)
